Measurements: PubChem BioAssay (NCI)
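Exposure lasted 48 hours, with cells grown in 96-well plates and compounds tested at five concentrations. At the TGI there is no net growth.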

Assays:
Experiment in all cases: NCI tumour cell line growth inhibition, 48 h
[1] = system: 786-0 renal
[2] = system: A498 renal
[3] = system: A549 NSCLC
[4] = system: ACHN renal
[5] = system: CAKI-1 renal
[6] = system: COLO 205 colon
[7] = system: DLD-1 colon
[8] = system: DMS 114 small cell lung
[9] = system: DMS 273 small cell lung
[10] = system: EKVX NSCLC
[11] = system: HCC-2998 colon
[12] = system: HCT-116 colon
[13] = system: HCT-15 colon
[14] = system: HL-60(TB) leukemia
[15] = system: HOP-62 NSCLC
[16] = system: HT29 colon
[17] = system: IGROV1 ovarian
[18] = system: K-562 leukemia
[19] = system: KM12 colon
[20] = system: KM20L2 colon
[21] = system: LOX IMVI melanoma
[22] = system: LXFL 529 NSCLC
[23] = system: M14 melanoma
[24] = system: M19-MEL melanoma
[25] = system: MOLT-4 leukemia
[26] = system: NCI-H226 lung
[27] = system: NCI-H23 lung
[28] = system: NCI-H460 lung
[29] = system: NCI-H522 lung
[30] = system: OVCAR-3 ovarian
[31] = system: OVCAR-4 ovarian
[32] = system: OVCAR-5 ovarian
[33] = system: OVCAR-8 ovarian
[34] = system: RPMI-8226 leukemia
[35] = system: SF-268 CNS
[36] = system: SF-295 CNS
[37] = system: SF-539 CNS
[38] = system: SK-MEL-2 melanoma
[39] = system: SK-MEL-28 melanoma
[40] = system: SK-MEL-5 melanoma
[41] = system: SK-OV-3 ovarian
[42] = system: SN12C renal
[43] = system: SNB-19 CNS
[44] = system: SNB-75 CNS
[45] = system: SNB-78 CNS
[46] = system: SR leukemia
[47] = system: SW-620 colon
[48] = system: TK-10 renal
[49] = system: U251 CNS
[50] = system: UACC-257 melanoma
[51] = system: UACC-62 melanoma
[52] = system: UO-31 renal
[53] = system: XF 498 CNS
[54] = system: CCRF-CEM leukemia
[55] = system: HOP-18 NSCLC
[56] = system: HOP-92 NSCLC
[57] = system: MALME-3M melanoma

Measured: TGI

O=C(NCCOC(=O)CCCCCCCCC(=O)OCCNC(=O)NC(=O)c1cn(Cc2ccccc2)c(=O)[nH]c1=O)NC(=O)c1cn(Cc2ccccc2)c(=O)[nH]c1=O
not listed: [54] | [55] | [56] | [57]
> 100 µM: all other assays above

C=C(/C=C/C=C(\CO)CCC=C(C)C)[C@H]1CCC2([C@H](CCCO)/C(=C(/C)C=O)CC[C@]2(C)O)[C@H]1O (some centres undefined)
not listed: [26] | [29] | [35] | [42] | [46] | [52]
> 100 µM: all other assays above
